Literature values as cited in doi:10.1101/2023.04.08.536135v1 (bioRxiv, 2023).

System: IDE

bradykinin (RPPGFSPFR; Bradykinin; UniProt P01042 381-389, looked up)
rate of degradation by IDE relative to that of insulin: at least 20 fold
